Legend:
[1] = target: NDM-1 (Klebsiella pneumoniae, UniProt C7C422); assay: Reversibility assay (PD-10 column removal of AM-A); assay type: biochemical; parameters: All β-lactamase overexpression constructs were generated without the leader peptide in a pET-28b plasmid containing a N-terminal His Tag; His tag (N, cleaved yes); SUMO (implied by the use of SUMO protease) (N, cleaved yes); made in house; host or cells: E. coli BL21(DE3); conditions: after removal of AM-A by gel filtration (PD10 column)
Chain of NDM-1 (C7C422 29-270 limits assumed): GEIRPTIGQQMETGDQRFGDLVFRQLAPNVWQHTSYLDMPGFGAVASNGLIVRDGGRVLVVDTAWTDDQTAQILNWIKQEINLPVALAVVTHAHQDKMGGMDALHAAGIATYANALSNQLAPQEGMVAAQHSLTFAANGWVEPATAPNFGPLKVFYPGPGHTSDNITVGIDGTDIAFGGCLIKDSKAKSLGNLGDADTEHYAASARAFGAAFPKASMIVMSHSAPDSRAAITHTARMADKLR
Method: 5 mL NDM-1 (500 nM) was incubated either with AM-A (100 μM), or without, on ice for 1 hour. The no enzyme control was buffer alone (Chelex-treated 50 mM HEPES pH 7.5). 2.5 mL was passed through a PD-10 spin column (GE healthcare) following column equilibration with buffer and centrifuged at 2,000×g for 2 minutes. Pre-PD-10 (+AM-A, −AM-A, −NDM-1), Post-PD-10 ((+AM-A, −AM-A, −NDM-1), and nitrocefin were equilibrated to 30° C. 20 μL of the enzyme solution was added to 180 μL nitrocefin for final enzyme concentration of 50 nM, and nitrocefin of 100 μM and AM-A of 10 μM. Assays were read in 96-well microplate format at 490 nm using a Spectramax reader (Molecular Devices) for 1 hr at 30° C.

[2] = target: T1, ACE (Oryctolagus cuniculus, UniProt P12822); assay: Incubation of AM-A with metalloenzymes in Zn2+-depleted buffer; assay type: biochemical, rabbit; conditions: extended incubation, AM-A 0.5 mM
T1 construct: as well as ACE from rabbit lung; from tissue; host or cells: rabbit lung
T1 sequence (P12822 34-1310): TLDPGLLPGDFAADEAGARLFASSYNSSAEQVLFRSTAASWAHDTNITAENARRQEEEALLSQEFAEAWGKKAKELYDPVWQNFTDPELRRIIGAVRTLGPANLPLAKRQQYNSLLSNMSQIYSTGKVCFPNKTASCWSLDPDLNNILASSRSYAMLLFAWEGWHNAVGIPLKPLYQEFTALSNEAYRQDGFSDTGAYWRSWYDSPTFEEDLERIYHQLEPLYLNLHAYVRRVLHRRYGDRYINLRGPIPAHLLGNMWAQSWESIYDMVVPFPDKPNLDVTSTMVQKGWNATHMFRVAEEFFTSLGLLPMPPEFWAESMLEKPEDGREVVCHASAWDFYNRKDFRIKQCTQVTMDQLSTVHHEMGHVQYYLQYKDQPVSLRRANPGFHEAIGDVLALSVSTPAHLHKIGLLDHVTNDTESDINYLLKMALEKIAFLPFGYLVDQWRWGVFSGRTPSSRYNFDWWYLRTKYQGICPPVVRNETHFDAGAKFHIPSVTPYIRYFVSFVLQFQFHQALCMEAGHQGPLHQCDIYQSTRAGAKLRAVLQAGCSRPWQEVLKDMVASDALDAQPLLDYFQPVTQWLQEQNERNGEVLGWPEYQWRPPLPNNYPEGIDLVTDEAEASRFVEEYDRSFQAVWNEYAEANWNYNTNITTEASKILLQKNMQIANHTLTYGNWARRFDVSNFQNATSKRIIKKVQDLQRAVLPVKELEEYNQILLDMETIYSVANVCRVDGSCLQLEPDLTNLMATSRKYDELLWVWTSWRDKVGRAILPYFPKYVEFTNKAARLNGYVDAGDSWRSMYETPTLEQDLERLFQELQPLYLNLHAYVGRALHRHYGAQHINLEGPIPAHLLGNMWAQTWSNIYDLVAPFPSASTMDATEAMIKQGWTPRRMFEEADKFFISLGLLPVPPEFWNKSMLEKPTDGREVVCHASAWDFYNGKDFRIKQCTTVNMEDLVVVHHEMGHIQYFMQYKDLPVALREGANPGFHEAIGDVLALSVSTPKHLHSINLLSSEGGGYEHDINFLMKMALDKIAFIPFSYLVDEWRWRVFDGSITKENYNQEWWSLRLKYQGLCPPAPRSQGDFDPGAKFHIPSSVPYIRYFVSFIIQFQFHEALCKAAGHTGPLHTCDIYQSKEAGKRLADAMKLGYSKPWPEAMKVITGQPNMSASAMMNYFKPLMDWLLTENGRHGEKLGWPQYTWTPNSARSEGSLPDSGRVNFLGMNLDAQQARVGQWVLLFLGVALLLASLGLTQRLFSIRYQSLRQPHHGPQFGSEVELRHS
Method: Enzyme (500 nM) was incubated with AM-A (500 μM) for 10 minutes. 20 μL of the above was diluted with 180 μL nitrocefin or FAPGG substrate for the following final concentrations: Enzyme (50 nM), FAPGG (50 μM)/nitrocefin (20 μM), AM-A (50 μM). Buffer (50 mM HEPES pH 7.5, 300 mM NaCl) was stirred overnight with 2 g/100 mL Chelex-100 (Biorad; Richmond, Calif.). Assays were read in 96-well microplate format at 490 nm using a Spectramax reader (Molecular Devices) at 37° C.

[3] = test system: E. coli BW25113ΔbamBΔtolCΔaraDAB::pLac(blaNDM-1); assay: Cell-based screen for NDM-1 inhibitors with sub-lethal meropenem; parameters: species or system Escherichia coli; conditions: in combination with meropenem
Method: A cell-based screen for inhibitors of the NDM-1 metallo-β-lactamase using a collection of natural product extracts derived from environmental microorganisms was performed. To increase the sensitivity of the screen to MBL inhibitor discovery a test strain of Escherichia coli BW25113 in which the bamB and tolC genes were independently deleted (E. coli BW25113ΔbamBΔtolC) was generated. BamB is involved in outer membrane porin assembly and disruption results in increased permeability to small molecules^19 and TolC is a part of the tripartite small molecule efflux systems such as AcrA-AcrB-TolC that serve to actively eliminate small molecules from the cell^20. Therefore, E. coli BW25113ΔbamBΔtolC increases the sensitivity of the screen to discovery of “hits”. This strain was further modified by integrating the blaNDM-1β-lactamase gene under control of the pLac promoter into the chromosome [E. coli BW25113ΔbamBΔtolCΔaraDAB::pLac(blaNDM-1)]. This strain was screened in the presence of a sub-lethal concentration of meropenem (of the minimum inhibitory concentration 0.125 μg/mL) in combination with ˜500 natural product extracts.
˜500 natural product extracts were screened against E. coli BW25113ΔbamBΔto1CΔaraDAB::pLac(blaNDM-1) in combination with 0.125 μg/mL meropenem. […] Z′ was determined to be 0.77, indicating an excellent screening window^22.

SMILES: N[C@H](CN[C@H](CN[C@@H](CC(=O)O)C(=O)O)C(=O)O)C(=O)O [AM-A, aspergillomarasmine A]
- reversibility of NDM-1 inhibition [1]: irreversible inactivation
- inhibition at 500 µM [2]: ~50%
- restoration of meropenem antibiotic activity [3]: restored meropenem activity
